Test results reported in patent US20080045514A1 (Cytovia, Inc., priority 2006, published 2008).
Like-named read-outs stand apart in the source and are kept apart here.

Legend:
Assay type in all cases: cell-based
[1] = tested on: human breast cancer cell line T-47D; assay: Caspase cascade activation (EC50), T-47D; settings: Homo sapiens, T47D cells
Experimental: (§1) Human breast cancer cell lines T-47D, human hepatocellular carcinoma cell line SNU398, human colon carcinoma cell line HCT116, human cancer cell line H1299, human Burkitt's lymphoma cell line Namalwa, human lymphoma cell line Raji, and human B cell lymphoblastoid cell line Ramos were grown according to media component mixtures designated by American Type Culture Collection+10% FCS (Invitrogen Corporation), in a 5% CO2-95% humidity incubator at 37° C. T-47D and H1299 cells were maintained at a cell density between 50 and 80% confluency at a cell density of 0.1 to 0.6×10^6 cells/mL. Cells were harvested at 600×g and resuspended at 0.65×10^6 cells/mL into appropriate media+10% FCS. An aliquot of 22.5 μL of cells was added to a well of a 384-well microtiter plate containing 2.5 μL of a 10% DMSO in RPMI-1640 media solution containing 0.16 to 100 μM of 3-(2-chlorophenyl)-6-(3,4-methylenedioxyphenyl)-7H-[1,2,4]triazolo[3,4-b][1,3,4]thiadiazine or other test compound (0.016 to 10 μM final). An aliquot of 22.5 μL of cells was added to a well of a 384-well microtiter plate containing 2.5 μL of a 10% DMSO in RPMI-1640 media solution without test compound as the control sample. The samples were mixed by agitation and then incubated at 37° C. for 48 h in a 5% CO2-95% humidity incubator. After incubation, the samples were removed from the incubator and 25 μL of a solution containing 14 μM of N—(Ac-DEVD)-N′-ethoxycarbonyl-R110 (SEQ ID No.:1) fluorogenic substrate (Cytovia, Inc.; WO99/18856), 20% sucrose (Sigma), 20 mM DTT (Sigma), 200 mM NaCl (Sigma), 40 mM Na PIPES buffer pH 7.2 (Sigma), and 500 μg/mL lysolecithin (Calbiochem) was added. The samples were mixed by agitation and incubated at room temperature. Using a fluorescent plate reader (Model SPECTRAfluor Plus, Tecan), an initial reading (T=0) was made approximately 1-2 min after addition of the substrate solution, employing excitation at 485 nm and emission at 530 nm, to determine the background fluorescence of the control sample. After the 3 h incubation, the samples were read for fluorescence as above (T=3 h). Calculation: The Relative Fluorescence Unit values (RFU) were used to calculate the sample readings as follows: RFU(T=3H)−Control RFU(T=0)=Net RFU(T=3h) The activity of caspase cascade activation was determined by the ratio of the net RFU value for 3-(2-chlorophenyl)-6-(3,4-methylenedioxyphenyl)-7H-[1,2,4]triazolo[3,4-b][1,3,4]thiadiazine (Example P) or other test compound to that of control samples. The EC50 (nM) was determined by a sigmoidal dose-response calculation (Prism 3.0, GraphPad Software Inc.).

[2] = tested on: human colon carcinoma cell line HCT116; assay: Caspase cascade activation (EC50), HCT116; settings: Homo sapiens, HCT-116, HCT116 cells
Experimental: as §1

[3] = tested on: human hepatocellular carcinoma cell line SNU398; assay: Caspase cascade activation (EC50), SNU398; settings: Homo sapiens, SNU-398, SNU398 cells
Experimental: as §1

[4] = tested on: human Burkitt's lymphoma cell line Namalwa; assay: Caspase cascade activation (EC50), Namalwa; settings: Homo sapiens, Burkitts lymphoma cell, Namalwa cells
Experimental: as §1

[5] = caspase cascade activation, read-out: caspase potency (EC50) T47D
[6] = caspase cascade activation, read-out: caspase potency (EC50) HCT116
[7] = caspase cascade activation, read-out: caspase potency (EC50) SNU398
[8] = caspase cascade activation, read-out: caspase potency (EC50) Namalwa
[9] = read-out: Caspase potency (EC50) T47D
[10] = read-out: Caspase potency (EC50) HCT116
[11] = read-out: Caspase potency (EC50) SNU398
[12] = read-out: Caspase potency (EC50) Namalwa

COc1ccccc1-c1nnc2n1N=C(c1cc(I)c(N)c(I)c1)CS2 [Example 79, 6-(4-Amino-3,5-diiodophenyl)-3-(2-methoxyphenyl)-7H-[1,2,4]triazolo[3,4-b][1,3,4]thiadiazine]
EC50 [1, 5]: 907 nM | EC50 [2, 6]: 1250 nM | EC50 [3, 7]: 562 nM | EC50 [4, 8]: 304 nM

COc1ccccc1-c1nnc2n1N=C(c1ccc(C)c([N+](=O)[O-])c1)CS2 [Example 54, 3-(2-Methoxyphenyl)-6-(4-methyl-3-nitrophenyl)-7H-[1,2,4]triazolo[3,4-b][1,3,4]thiadiazine]
EC50 [1, 5]: 554 nM | EC50 [2, 6]: 441 nM | EC50 [3, 7]: 306 nM | EC50 [4, 8]: 290 nM

COc1cc(C)c(Cl)cc1C1=Nn2c(nnc2-c2ccccc2OC)SC1 [Example 49, 6-(5-Chloro-2-methoxy-4-methylphenyl)-3-(2-methoxyphenyl)-7H-[1,2,4]triazolo[3,4-b][1,3,4]thiadiazine]
EC50 [1, 5]: > 10000 nM | EC50 [2, 6]: > 10000 nM | EC50 [3, 7]: 5650 nM | EC50 [4, 8]: 5590 nM

COc1ccccc1-c1nnc2n1N=C(c1cc(Br)c3c(c1)CCN3)CS2 [Example 96, 6-(7-Bromoindolin-5-yl)-3-(2-methoxyphenyl)-7H-[1,2,4]triazolo[3,4-b][1,3,4]thiadiazine]
EC50 [1, 9]: 136 nM | EC50 [2, 10]: 79 nM | EC50 [3, 11]: 35 nM | EC50 [4, 12]: 31 nM

COc1ccccc1-c1nnc2n1N=C(c1ccc(C#N)cc1)CS2 [Example 87, 6-(4-Cyanophenyl)-3-(2-methoxyphenyl)-7H-[1,2,4]triazolo[3,4-b][1,3,4]thiadiazine]
EC50 [1, 5]: 3330 nM | EC50 [2, 6]: 5090 nM | EC50 [3, 7]: 2550 nM | EC50 [4, 8]: 2280 nM

Cc1ccc(C2=Nn3c(nnc3-c3c(C)nc4ccccn34)SC2)cc1 [Example 98, 3-(2-Methyl-imidazo[1,2-a]pyridin-3-yl)-6-(4-methylphenyl)-7H-[1,2,4]triazolo[3,4-b][1,3,4]thiadiazine]
EC50 [1, 9]: 166 nM | EC50 [2, 10]: 98 nM | EC50 [3, 11]: 59 nM | EC50 [4, 12]: 66 nM

COc1ccc(-c2nnc3n2N=C(c2ccc4[nH]c(=O)oc4c2)CS3)cc1OC [Example 35, 6-(2,3-Dihydro-2-oxobenzo[d]oxazol-6-yl)-3-(3,4-dimethoxyphenyl)-7H-[1,2,4]triazolo[3,4-b][1,3,4]thiadiazine]
EC50 [1, 5]: > 10000 nM | EC50 [2, 6]: > 10000 nM | EC50 [3, 7]: > 10000 nM | EC50 [4, 8]: > 10000 nM

COc1ccc(C2=Nn3c(nnc3-c3cccc(Cl)c3Cl)SC2)cc1 [Example M3]
EC50 [1, 5]: 268 nM | EC50 [2, 6]: 124 nM | EC50 [3, 7]: 82 nM | EC50 [4, 8]: 68 nM

COC(=O)c1ccc(C2=Nn3c(nnc3-c3ccccc3OC)SC2)cc1 [Example 85, 6-(4-Methoxycarbonylphenyl)-3-(2-methoxyphenyl)-7H-[1,2,4]triazolo[3,4-b][1,3,4]thiadiazine]
EC50 [1, 5]: 274 nM | EC50 [2, 6]: 298 nM | EC50 [3, 7]: 253 nM | EC50 [4, 8]: 209 nM

COc1ccccc1-c1nnc2n1N=C(c1ccc(N)c(N)c1)CS2 [Example 60, 6-(3,4-Diaminophenyl)-3-(2-methoxyphenyl)-7H-[1,2,4]triazolo[3,4-b][1,3,4]thiadiazine]
EC50 [1, 5]: > 10000 nM | EC50 [2, 6]: > 10000 nM | EC50 [3, 7]: > 10000 nM | EC50 [4, 8]: > 10000 nM

Cc1ccccc1-c1nnc2n1N=C(c1ccc(C(C)(C)C)cc1)CS2 [Example 51, 6-(4-tert-Butylphenyl)-3-(2-methylphenyl)-7H-[1,2,4]triazolo[3,4-b][1,3,4]thiadiazine]
EC50 [1, 5]: > 10000 nM | EC50 [2, 6]: > 10000 nM | EC50 [3, 7]: > 10000 nM | EC50 [4, 8]: > 10000 nM

COc1ccc(-c2nn3c(-c4ccccc4OC)nnc3[nH]c2=O)cc1 [Example 36, 3-(2-Methoxyphenyl)-6-(4-methoxyphenyl)-[1,2,4]triazolo[4,3-b][1,2,4]triazin-7(8H)-one]
EC50 [1, 5]: > 10000 nM | EC50 [2, 6]: > 10000 nM | EC50 [4, 8]: > 10000 nM

COc1cc(-c2n[nH]c3nc(=O)c(-c4ccc(C)cc4)nn23)cc(OC)c1OC [Example 37, 3-(3,4,5-Trimethoxyphenyl)-6-(4-methylphenyl)-1H-[1,2,4]triazolo[4,3-b][1,2,4]triazin-7-one]
EC50 [1, 5]: 5830 nM | EC50 [2, 6]: > 10000 nM | EC50 [3, 7]: 5040 nM | EC50 [4, 8]: > 10000 nM

Cc1cc(Cl)ccc1-c1nnc2n1N=C(c1ccc(C)c([N+](=O)[O-])c1)CS2 [Example 90, 3-(4-Chloro-2-methylphenyl)-6-(4-methyl-3-nitrophenyl)-7H-[1,2,4]triazolo[3,4-b][1,3,4]thiadiazine]
EC50 [1, 5]: 915 nM | EC50 [2, 6]: 492 nM | EC50 [3, 7]: 412 nM | EC50 [4, 8]: 303 nM

COc1cc(Cl)ccc1-c1nnc2n1N=C(c1ccc(C)cc1)CS2 [Example 97, 3-(4-Chloro-2-methoxyphenyl)-6-(4-methylphenyl)-7H-[1,2,4]triazolo[3,4-b][1,3,4]thiadiazine]
EC50 [1, 9]: 34 nM | EC50 [2, 10]: 8 nM | EC50 [3, 11]: 6 nM | EC50 [4, 12]: 4 nM

COc1ccccc1-c1nnc2n1N=C(c1ccc(Cl)c(Cl)c1)CS2 [Example Q3]
EC50 [1, 5]: > 10000 nM | EC50 [2, 6]: > 10000 nM | EC50 [3, 7]: > 10000 nM | EC50 [4, 8]: 292 nM

COc1cc(OC)cc(-c2nnc3n2N=C(c2ccc4[nH]c(=O)oc4c2)CS3)c1 [Example 34, 6-(2,3-Dihydro-2-oxobenzo[d]oxazol-6-yl)-3-(3,5-dimethoxyphenyl)-7H-[1,2,4]triazolo[3,4-b][1,3,4]thiadiazine]
EC50 [1, 5]: 4600 nM | EC50 [2, 6]: 5090 nM | EC50 [3, 7]: 4920 nM | EC50 [4, 8]: 4930 nM

COc1cccc(-c2nnc3n2N=C(c2ccc(O)c(O)c2)CS3)c1 [Example D2, 3-(3-Methoxyphenyl)-6-(3,4-dihydroxyphenyl)-7H-[1,2,4]triazolo[3,4-b][1,3,4]thiadiazine]
EC50 [1, 5]: 687 nM | EC50 [2, 6]: 525 nM | EC50 [3, 7]: 112 nM

CCOc1ccc(C2=Nn3c(nnc3-c3cccc(Cl)c3)SC2)cc1 [Example E2, 3-(3-Chlorophenyl)-6-(4-ethoxyphenyl)-7H-[1,2,4]triazolo[3,4-b][1,3,4]thiadiazine]
EC50 [1, 5]: 1100 nM | EC50 [2, 6]: 681 nM | EC50 [3, 7]: 429 nM

Cc1ccc(C2=Nn3c(nnc3-c3cc(N)cn3C)SC2)cc1 [Example 99, 3-(1-Methyl-4-amino-1H-pyrrol-2-yl)-6-(4-methylphenyl)-7H-[1,2,4]triazolo[3,4-b][1,3,4]thiadiazine]
EC50 [1, 9]: 5420 nM | EC50 [2, 10]: 1780 nM | EC50 [3, 11]: 1260 nM | EC50 [4, 12]: 1180 nM

COc1ccccc1-c1nnc2n1N=C(c1ccc(C(=O)O)cc1)CS2 [Example 89, 6-(4-Carboxyphenyl)-3-(2-Methoxyphenyl)-7H-[1,2,4]triazolo[3,4-b][1,3,4]thiadiazine]
EC50 [1, 5]: > 10000 nM | EC50 [2, 6]: > 10000 nM | EC50 [3, 7]: > 10000 nM | EC50 [4, 8]: > 10000 nM

COc1cccc(-c2nnc3n2N=C(c2ccc(Br)cc2)CS3)c1 [Example F2, 3-(3-Methoxyphenyl)-6-(4-bromophenyl)-7H-[1,2,4]triazolo[3,4-b][1,3,4]thiadiazine]
EC50 [1, 5]: 5400 nM | EC50 [2, 6]: > 10000 nM | EC50 [3, 7]: 2700 nM

CCOc1ccc(C2=Nn3c(nnc3-c3cccc(OCC)c3)SC2)cc1 [Example G2, 3-(3-Ethoxyphenyl)-6-(4-ethoxyphenyl)-7H-[1,2,4]triazolo[3,4-b][1,3,4]thiadiazine]
EC50 [1, 5]: 6370 nM | EC50 [2, 6]: > 10000 nM | EC50 [3, 7]: 2550 nM

COc1ccc(C2=Nn3c(nnc3-c3ccccc3Cl)SC2)cc1 [Example C2, 3-(2-Chlorophenyl)-6-(4-methoxyphenyl)-7H-[1,2,4]triazolo[3,4-b][1,3,4]thiadiazine]
EC50 [1, 5]: 395 nM | EC50 [2, 6]: 177 nM | EC50 [3, 7]: 60 nM
